Test [1] concerns anti-Thy 1 glomerulonephritis. As to the kind of experiment: Glomerular mRNA expression (Northern hybridization). It counts as in vivo, Sprague Dawley rats. Particulars: enalapril alone. As to the method:
These experiments were performed on male Sprague Dawley rats (200-250 g) obtained from the Sasco colony of Charles River Laboratories (Wilmington, Mass., USA). Animal housing and care were in accordance with the NIH Guide for the Care and Use of Laboratory Animals, NIH Publication No. 85-23, 1985. Animals were fed a normal protein diet (22% protein, Teklad No. 86 550, Teklad Premier Laboratory Diets, Madison, Wis., USA). Glomerulonephritis was induced by tail vein injection of 2.25 mg/Kg of the monoclonal anti-Thy 1.1 antibody OX-7 (NCCC, Biovest International Inc, Minneapolis, Minn., USA). OX-7 binds to a Thy 1-like epitope on the surface of mesangial cells causing complement-dependent cell lysis followed by fibrotic tissue repair (Bagchus et al., Lab Invest. 55:680-687 (1986)). Control animals were injected with similar volumes of phosphate-buffered saline (PBS). Groups of 8 rats were assigned and treated as outlined in Table 2. […] Changes in mRNA levels were determined by first correcting for the densitometric intensity of 18S for each sample. For comparison, this ratio was set at unity for normal control samples and other lanes on the same gel were expressed as fold increases over this value. […] The percent reduction in disease severity in a treated group was calculated as:

Test [2] concerns anti-Thy 1 glomerulonephritis. As to the kind of experiment: Proteinuria in anti-Thy 1 glomerulonephritis. Format: in vivo, Sprague Dawley rats. Particulars: enalapril monotherapy. The protocol: These experiments were performed on male Sprague Dawley rats (200-250 g) obtained from the Sasco colony of Charles River Laboratories (Wilmington, Mass., USA). Animal housing and care were in accordance with the NIH Guide for the Care and Use of Laboratory Animals, NIH Publication No. 85-23, 1985. Animals were fed a normal protein diet (22% protein, Teklad No. 86 550, Teklad Premier Laboratory Diets, Madison, Wis., USA). Glomerulonephritis was induced by tail vein injection of 2.25 mg/Kg of the monoclonal anti-Thy 1.1 antibody OX-7 (NCCC, Biovest International Inc, Minneapolis, Minn., USA). OX-7 binds to a Thy 1-like epitope on the surface of mesangial cells causing complement-dependent cell lysis followed by fibrotic tissue repair (Bagchus et al., Lab Invest. 55:680-687 (1986)). Control animals were injected with similar volumes of phosphate-buffered saline (PBS).
Groups of 8 rats were assigned and treated as outlined in Table 2. Doses of enalapril above […] in drinking water are maximally effective in this model (Peters et al., Kidney Int. 54:1570-1580 (1998)). A dose of […] enalapril was used here. […]
The disease-induced increase in a variable was defined as the mean value for the disease control group minus the mean value of the normal control group. The percent reduction in disease severity in a treated group was calculated as: […]

For the molecule `CCOC(=O)[C@H](CCc1ccccc1)N[C@@H](C)C(=O)N1CCC[C@H]1C(=O)O` [enalapril], in test [1], the “reduction of TGF-β1 mRNA” value came to 29%. For the same molecule, the “reduction of disease-induced increases in urinary protein” value in test [2] is 78%.

(Values after US7763580B2, “Methods for treating conditions associated with the accumulation of excess extracellular matrix” (University of Utah Research Foundation, priority 1999, dated 2010).)
